Assay results from publication PMC3258152 (Nucleic Acids Research, 2011).

Target: T1, CkoPE (Candidatus Korarchaeum cryptofilum, UniProt B1L4V6)
T1 sequence (B1L4V6 1-117): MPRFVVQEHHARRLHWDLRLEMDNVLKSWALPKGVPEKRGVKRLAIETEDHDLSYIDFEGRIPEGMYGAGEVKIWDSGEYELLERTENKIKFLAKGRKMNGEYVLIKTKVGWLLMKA
Experiment: […]'-resection of […]-labelled D22R2 single strand, urea-PAGE
Type: biochemical

IC50: ~50 mM
SMILES: O=P(O)(O)O [phosphate]
